From US8927717B1, “Thiochromeno[2,3-c]quinolin-12-one derivatives, preparation method and application thereof” (National Defense Medical Center, priority 2014, dated 2015)

Experiments:
Type in all cases: cell-based
[1] = system: DU-145; settings: DU-145; 10^−5 molar
[2] = system: HCT-15; settings: HCT-15; 10^−5 molar
[3] = system: A549/ATCC; settings: A549/ATCC; 10^−5 molar
[4] = system: A498; settings: A498; 10^−5 molar
[5] = system: HT29; settings: HT29; 10^−5 molar
[6] = system: K-562; settings: K-562; 10^−5 molar
[7] = system: MALME-3M; settings: MALME-3M; 10^−5 molar
[8] = system: RPMI-8226; settings: RPMI-8226; 10^−5 molar
[9] = system: 786-0; settings: 786-0; 10^−5 molar
[10] = system: 60 cancer cell lines; assay: NCI 60-cell screen, SRB, whole panel (mean, delta, range); settings: 10^−5 molar; for Growth percent, Delta: delta over panel; for Growth percent, Mean: mean over panel; for Growth percent, Range: range over panel
[11] = system: SK-MEL-28; settings: SK-MEL-28; 10^−5 molar
[12] = system: OVCAR-8; settings: OVCAR-8; 10^−5 molar
[13] = system: SR; settings: SR; 10^−5 molar
[14] = system: LOX IMVI; settings: LOX IMVI; 10^−5 molar
[15] = system: UACC-62; settings: UACC-62; 10^−5 molar
[16] = system: TK-10; settings: TK-10; 10^−5 molar
[17] = system: RXF 393; settings: RXF 393; 10^−5 molar
[18] = system: BT-549; settings: BT-549; 10^−5 molar
[19] = system: SN12C; settings: SN12C; 10^−5 molar
[20] = system: MDA-MB-435; settings: MDA-MB-435; 10^−5 molar
[21] = system: SW-620; settings: SW-620; 10^−5 molar
[22] = system: HL-60(TB); settings: HL-60(TB); 10^−5 molar
[23] = system: NCI-H522; settings: NCI-H522; 10^−5 molar
[24] = system: CCRF-CEM; settings: CCRF-CEM; 10^−5 molar
[25] = system: T-47D; settings: T-47D; 10^−5 molar
[26] = system: OVCAR-5; settings: OVCAR-5; 10^−5 molar
[27] = system: NCI-H23; settings: NCI-H23; 10^−5 molar
[28] = system: NCI-H460; settings: NCI-H460; 10^−5 molar
[29] = system: PC-3; settings: PC-3; 10^−5 molar
[30] = system: M14; settings: M14; 10^−5 molar
[31] = system: UO-31; settings: UO-31; 10^−5 molar
[32] = system: SNB-75; settings: SNB-75; 10^−5 molar
[33] = system: MDA-MB-486; settings: MDA-MB-486; 10^−5 molar
[34] = system: HS 578T; settings: HS 578T; 10^−5 molar
[35] = system: SNB-19; settings: SNB-19; 10^−5 molar
[36] = system: MOLT-4; settings: MOLT-4; 10^−5 molar
[37] = system: MCF7; settings: MCF7; 10^−5 molar
[38] = system: SF-295; settings: SF-295; 10^−5 molar
[39] = system: COLO 205; settings: COLO 205; 10^−5 molar

O=c1c2cc(Cl)ccc2sc2c(NCCN3CCOCC3)nc3ccccc3c12 [Compound N16, 10-Chloro-6-((2-morpholinoethyl)amino)-12H-thiochromeno[2,3-c]quinolin-12-one]
Growth percent [1]: 93.09% | Growth percent [2]: 58.81% | Growth percent [3]: 95.12% | Growth percent [4]: 80.54% | Growth percent [5]: 43.13% | Growth percent [6]: 17.67% | Growth percent [7]: 78.79% | Growth percent [8]: 92.20% | Growth percent [9]: 83.16% | Growth percent, Delta [10]: 62.71% | Growth percent, Mean [10]: 80.38% | Growth percent, Range [10]: 88.85% | Growth percent [11]: 98.56% | Growth percent [12]: 92.43% | Growth percent [13]: 67.74% | Growth percent [14]: 67.43% | Growth percent [15]: 94.58% | Growth percent [16]: 76.67% | Growth percent [17]: 93.21% | Growth percent [18]: 91.21% | Growth percent [19]: 95.98% | Growth percent [20]: 98.93% | Growth percent [21]: 99.65% | Growth percent [22]: 104.97% | Growth percent [23]: 76.66% | Growth percent [24]: 82.21% | Growth percent [25]: 47.63% | Growth percent [26]: 68.98% | Growth percent [27]: 83.07% | Growth percent [28]: 100.49% | Growth percent [29]: 67.82% | Growth percent [30]: 99.59% | Growth percent [31]: 54.16% | Growth percent [32]: 60.74% | Growth percent [33]: 74.34% | Growth percent [34]: 89.65% | Growth percent [35]: 90.44% | Growth percent [36]: 80.91% | Growth percent [37]: 51.69% | Growth percent [38]: 102.17% | Growth percent [39]: 79.39%

CN(C)CCCNc1nc2ccccc2c2c(=O)c3cc(Cl)ccc3sc12 [Compound N17, 10-Chloro-6-((3-(dimethylamino)propyl)amino)-12H-thiochromeno[2,3-c]quinolin-12-one]
Growth percent [1]: 97.29% | Growth percent [2]: 80.92% | Growth percent [3]: 81.19% | Growth percent [4]: 78.57% | Growth percent [5]: 90.98% | Growth percent [6]: 47.53% | Growth percent [7]: 100.91% | Growth percent [8]: 78.66% | Growth percent [9]: 93.30% | Growth percent, Delta [10]: 44.56% | Growth percent, Mean [10]: 85.32% | Growth percent, Range [10]: 68.13% | Growth percent [11]: 99.63% | Growth percent [12]: 98.38% | Growth percent [13]: 48.48% | Growth percent [14]: 66.16% | Growth percent [15]: 102.63% | Growth percent [16]: 108.89% | Growth percent [17]: 76.32% | Growth percent [18]: 99.81% | Growth percent [19]: 83.63% | Growth percent [20]: 93.04% | Growth percent [21]: 91.74% | Growth percent [22]: 77.32% | Growth percent [23]: 98.76% | Growth percent [24]: 69.06% | Growth percent [25]: 79.82% | Growth percent [26]: 106.26% | Growth percent [27]: 100.25% | Growth percent [28]: 88.06% | Growth percent [29]: 81.31% | Growth percent [30]: 103.73% | Growth percent [31]: 72.62% | Growth percent [32]: 60.99% | Growth percent [33]: 43.26% | Growth percent [34]: 87.67% | Growth percent [35]: 97.83% | Growth percent [36]: 70.71% | Growth percent [37]: 51.20% | Growth percent [38]: 95.14% | Growth percent [39]: 91.35%
